Experimental data as given in patent US20200308170A1, “KRAS G12C INHIBITORS” (Mirati Therapeutics, Inc., priority 2017, published 2020).

target: T1, KRas G12C (Homo sapiens, UniProt P01116, C118S/C51S/C80L/G12C); assay: KRas G12C Modification Assay (LCMS detection of covalent adduct); format: binding; conditions: 5 μM concentration for 3 hours; LC/MS of intact protein; higher POC = higher degree of modification
T1 construct: GDP-loaded K-Ras (1-169) G12C, C51S, C80L, C118S
Protocol: A 10 μL aliquot of each protein solution was then transferred to a 384 well microtiter plate. Initial compound stocks were generated at fifty times their desired final assay concentration in DMSO.
Exemplary compounds of Formula (II) were diluted 25-fold into K-Ras Assay Buffer to a final of two times their final concentration. A 10 μL aliquot of each diluted compound solution was then added to each of the protein solutions in the microtiter plate to initiate reaction. […] At each time point, the reactions were quenched with 20 μL of a 25 mM acetic acid solution. […] Once all reactions were quenched, the plates were heat sealed and the samples were injected into a LC/MS system for data acquisition.
Samples were injected in their liquid phase onto a C-3 reverse phase column to remove assay buffer and prepare the samples for mass spectrometer. The proteins were eluted from the column using an acetonitrile gradient and fed directly into the mass analyzer. Initial raw data analysis took place in Agilent MassHunter software immediately post data acquisition.
Raw data analysis of the intact protein was exclusively a deconvolution of the multiple charge states of each protein in solution using a maximum entropy deconvolution provided in Mass Hunter. To minimize complexity, only the data over limited mass ranges were considered for analysis, with a minimum of one Dalton mass step intervals. The heights of all masses identified during raw data analysis were exported to be further analyzed in Spotfire® data analysis software.
Final data analysis was a multistep process in the Spotfire® data analysis software package. Briefly, each protein mass was calculated as a percent of the total signal of that sample, that percentage was then normalized to the percentage of signal of the protein in the absence of reactive compounds. Those normalized signals were reported as normalized percent of control (POC). […] Key: “A”≤25% POC; “B”>25% POC−≤50% POC; “C”>50% POC and ND=not determined.

Structure (SMILES)	POC (normalized percent of control; degree of covalent modification of KRas G12C)
Cc1cccc(N2CCc3c(nc(OC[C@@H]4CCCN4C)nc3N3CCN(C(=O)/C=C\Cl)[C@@H](CC#N)C3)C2)c1C [Example 34, 2-((S)-1-((Z)-3-chloroacryloyl)-4-(7-(2,3-dimethylphenyl)-2-(((S)-1-methylpyrrolidin-2-yl)methoxy)-5,6,7,8-tetrahydropyrido[3,4-d]pyrimidin-4-yl)piperazin-2-yl)acetonitrile]	C (“C”>50% POC)
C=C(F)C(=O)N1CCN(c2nc(OC[C@@H]3CCCN3C)nc3c2CCN(c2cccc4cccc(C)c24)C3)C[C@@H]1CC#N [Example 36, 2-((S)-1-(2-fluoroacryloyl)-4-(7-(8-methylnaphthalen-1-yl)-2-(((S)-1-methylpyrrolidin-2-yl)methoxy)-5,6,7,8-tetrahydropyrido[3,4-d]pyrimidin-4-yl)piperazin-2-yl)acetonitrile]	C (“C”>50% POC)
Cc1cccc2cccc(N3CCc4c(nc(OC[C@@H]5CCCN5C)nc4N4CCN(C(=O)C#CCO)[C@@H](CC#N)C4)C3)c12 [Example 37, 2-((S)-1-(4-hydroxybut-2-ynoyl)-4-(7-(8-methylnaphthalen-1-yl)-2-(((S)-1-methylpyrrolidin-2-yl)methoxy)-5,6,7,8-tetrahydropyrido[3,4-d]pyrimidin-4-yl)piperazin-2-yl)acetonitrile]	C (“C”>50% POC)
C=C(OC)C(=O)N1CCN(c2nc(OC[C@@H]3CCCN3C)nc3c2CCN(c2cccc4cccc(C)c24)C3)C[C@@H]1CC#N [Example 41, 2-[(2S)-1-(2-methoxyprop-2-enoyl)-4-[7-(8-methyl-1-naphthyl)-2-[[(2S)-1-methylpyrrolidin-2-yl]methoxy]-6,8-dihydro-5H-pyrido[3,4-d]pyrimidin-4-yl]piperazin-2-yl]acetonitrile]	A (“A”≤25% POC)
C=C(OC)C(=O)N1CCN(c2nc(OC[C@@H]3CCCN3C)nc3c2CCN(c2cccc4cccc(Cl)c24)C3)C[C@@H]1CC#N [Example 43, 2-[(2S)-4-[7-(8-chloro-1-naphthyl)-2-[[(2S)-1-methylpyrrolidin-2-yl]methoxy]-6,8-dihydro-5H-pyrido[3,4-d]pyrimidin-4-yl]-1-(2-methoxyprop-2-enoyl)piperazin-2-yl]acetonitrile]	A (“A”≤25% POC)
C=C(NC(C)=O)C(=O)N1CCN(c2nc(OC[C@@H]3CCCN3C)nc3c2CCN(c2cccc4cccc(C)c24)C3)C[C@@H]1CC#N [Example 54, N-(3-((S)-2-(cyanomethyl)-4-(7-(8-methylnaphthalen-1-yl)-2-(((S)-1-methylpyrrolidin-2-yl)methoxy)-5,6,7,8-tetrahydropyrido[3,4-d]pyrimidin-4-yl)piperazin-1-yl)-3-oxoprop-1-en-2-yl)acetamide]	B (“B”>25% POC−≤50% POC)

Now from value to molecule:

POC (normalized percent of control; degree of covalent modification of KRas G12C)	Structure (SMILES)
C (“C”>50% POC)	Cc1cccc2cccc(N3CCc4c(nc(OC[C@@H]5CCCN5C)nc4N4CCN(C(=O)/C=C/CF)[C@@H](CC#N)C4)C3)c12 [Example 35, 2-((S)-1-((E)-4-fluorobut-2-enoyl)-4-(7-(8-methylnaphthalen-1-yl)-2-(((S)-1-methylpyrrolidin-2-yl)methoxy)-5,6,7,8-tetrahydropyrido[3,4-d]pyrimidin-4-yl)piperazin-2-yl)acetonitrile]
C (“C”>50% POC)	Cc1cccc2cccc(N3CCc4c(nc(OC[C@@H]5CCCN5C)nc4N4CCN(C(=O)/C=C/Cn5cccn5)[C@@H](CC#N)C4)C3)c12 [Example 38, 2-((S)-1-((E)-4-(1H-pyrazol-1-yl)but-2-enoyl)-4-(7-(8-methylnaphthalen-1-yl)-2-(((S)-1-methylpyrrolidin-2-yl)methoxy)-5,6,7,8-tetrahydropyrido[3,4-d]pyrimidin-4-yl)piperazin-2-yl)acetonitrile]
C (“C”>50% POC)	Cc1cccc2cccc(N3CCc4c(nc(OC[C@@H]5CCCN5C)nc4N4CCN(C(=O)/C=C/CO)[C@@H](CC#N)C4)C3)c12 [Example 39, 2-((S)-1-((E)-4-hydroxybut-2-enoyl)-4-(7-(8-methylnaphthalen-1-yl)-2-(((S)-1-methylpyrrolidin-2-yl)methoxy)-5,6,7,8-tetrahydropyrido[3,4-d]pyrimidin-4-yl)piperazin-2-yl)acetonitrile]
C (“C”>50% POC)	COC/C=C/C(=O)N1CCN(c2nc(OC[C@@H]3CCCN3C)nc3c2CCN(c2cccc4cccc(C)c24)C3)C[C@@H]1CC#N [Example 40, 2-((S)-1-((E)-4-methoxybut-2-enoyl)-4-(7-(8-methylnaphthalen-1-yl)-2-(((S)-1-methylpyrrolidin-2-yl)methoxy)-5,6,7,8-tetrahydropyrido[3,4-d]pyrimidin-4-yl)piperazin-2-yl)acetonitrile]
C (“C”>50% POC)	CN1CCC[C@H]1COc1nc2c(c(N3CCN(C(=O)/C=C/CO)[C@@H](CC#N)C3)n1)CCN(c1cccc3cccc(Cl)c13)C2 [Example 42, 2-[(2S)-4-[7-(8-chloro-1-naphthyl)-2-[[(2S)-1-methylpyrrolidin-2-yl]methoxy]-6,8-dihydro-5H-pyrido[3,4-d]pyrimidin-4-yl]-1-[(E)-4-hydroxybut-2-enoyl]piperazin-2-yl]acetonitrile]
C (“C”>50% POC)	COC/C=C/C(=O)N1CCN(c2nc(OC[C@@H]3CCCN3C)nc3c2CCN(c2cccc4cccc(Cl)c24)C3)C[C@@H]1CC#N [Example 53, 2-((S)-4-(7-(8-chloronaphthalen-1-yl)-2-(((S)-1-methylpyrrolidin-2-yl)methoxy)-5,6,7,8-tetrahydropyrido[3,4-d]pyrimidin-4-yl)-1-((E)-4-methoxybut-2-enoyl)piperazin-2-yl)acetonitrile]
C (“C”>50% POC)	Cc1cccc2cccc(N3CCc4c(nc(OC[C@@H]5CCCN5C)nc4N4CCN(C(=O)/C=C/c5ccncc5)[C@@H](CC#N)C4)C3)c12 [Example 55, 2-((S)-4-(7-(8-methylnaphthalen-1-yl)-2-(((S)-1-methylpyrrolidin-2-yl)methoxy)-5,6,7,8-tetrahydropyrido[3,4-d]pyrimidin-4-yl)-1-((E)-3-(pyridin-4-yl)acryloyl)piperazin-2-yl)acetonitrile]
